# Test results: patent US20200155607A1, “Enriched Cellular Compositions and Therapeutic Use” (Abraham J and Phyllis Katz Cord Blood Foundation, priority 2017, published 2020)
# System: human dermal fibroblast
# Test: Fibroblast proliferation by MTT assay
# Format: cell-based
# Settings: mitomycin c 10 or 25 μg/ml for 30 or 60 min; MTT at 17 hrs
# Protocol: The results from two different studies investigating the effect of mitomycin c on human dermal fibroblast proliferation are shown in FIGS. 5A-5B. Fibroblast cells were plated out in complete media and then treated with mitomycin c (10 μg/ml or 25 μg/ml) for 30 or 60 min. Mitomcyin c was washed out and starvation media was added. Positive controls are 10% FBS and FGF (25 ng/ml). The ODs from the blank wells were subtracted out. Proliferation was measured by MTT assay at 17 hrs.
smiles,measurement,value
"CO[C@@]12[C@H](COC(N)=O)C3=C(C(=O)C(C)=C(N)C3=O)N1C[C@@H]1N[C@@H]12 [Mitomycin c, mitomycin c]",fibroblast proliferation (MTT),appears to inhibit fibroblast proliferation
